Experimental data as given in article PMC10518255, “A first-in-class pan-lysyl oxidase inhibitor impairs stromal remodeling and enhances gemcitabine response and survival in pancreatic cancer” (Nature Cancer, 2023).
Values joined by “and” are separate entries in the source; they are usually repeats but may differ in a detail not shown here. Identical values can stand only once.

Tests used:
Recombinant LOXL-1 = molecular target: T1, Recombinant LOXL-1 (Homo sapiens, UniProt Q08397); assay: Lysyl oxidase enzymatic activity, fluorescence-based assay, IC50; type: biochemical
T1 sequence (Q08397 96-574): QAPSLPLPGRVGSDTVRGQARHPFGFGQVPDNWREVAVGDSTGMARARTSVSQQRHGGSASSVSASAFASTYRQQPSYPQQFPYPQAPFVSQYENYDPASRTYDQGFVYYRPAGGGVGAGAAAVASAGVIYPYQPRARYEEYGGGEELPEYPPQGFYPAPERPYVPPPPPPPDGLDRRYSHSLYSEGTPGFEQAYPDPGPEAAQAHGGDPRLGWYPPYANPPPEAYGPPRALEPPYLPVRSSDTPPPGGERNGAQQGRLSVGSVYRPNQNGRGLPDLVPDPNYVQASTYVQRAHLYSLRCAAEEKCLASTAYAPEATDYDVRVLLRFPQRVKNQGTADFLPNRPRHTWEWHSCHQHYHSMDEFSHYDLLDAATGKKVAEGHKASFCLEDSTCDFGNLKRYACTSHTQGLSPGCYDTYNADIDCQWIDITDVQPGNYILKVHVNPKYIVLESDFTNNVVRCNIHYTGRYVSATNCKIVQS
Excerpt: Data are presented as mean ± s.d. […] Data presented as mean ± s.d. […] Source data TEXT PRINTED IN THE PICTURE: (b) PXS-5505: Recombinant DAO IC50 (nM): >30,000; Recombinant SSAO/VAP1 IC50 (nM): >30,000; Recombinant MAO-A IC50 (nM): >30,000; Recombinant MAO-B IC50 (nM): >30,000 | (f) PXS-5505: Fibroblast LOX IC50 (nM): 4,930; Recombinant LOXL-1 IC50 (nM): 1,590; Recombinant LOXL-2 IC50 (nM): 570; Recombinant LOXL-3 IC50 (nM): 1,800; Recombinant LOXL-4 IC50 (nM): 190
In characterizing PXS-5505, the half-maximum inhibitory concentration (IC50) values for each of the lysyl oxidase family members were determined by measuring enzymatic activity using a fluorescence-based assay. […]

Microsomal stability = type: in vitro ADME; conditions: microsomes; In vitro (human)
[1] = tested on: human pancreatic cancer CAFs; assay: 3D organotypic matrix contraction assay; type: cell-based; design: area of matrices: unit not given here; conditions: for area of matrices: single replicates
Procedure: High-purity rat tail collagen for 3D organotypic assays was acid extracted following previously published methodology. The 12-day organotypic assays were carried out as described previously. In brief, 2 × 10^5 KPC CAFs were embedded in 2.5 ml 1.5 mg ml^−1 rat tail collagen and allowed to remodel for 12 days in a six-well plate in DMEM supplemented with 10% FBS and 1% penicillin–streptomycin in 21% O2/5% CO2 (Extended Data Fig. 4a). For human pancreatic cancer CAFs, 3.45 × 10^5 cells were embedded into 1.25 ml 1.5 mg ml^−1 rat tail collagen and allowed to remodel for 12 days in a 12-well plate in IMDM supplemented with 4 mM glutamine and 10% FBS in 21% O2/5% CO2.
Extended Data Fig. 4 PXS-5505 inhibits collagen cross-linking by PDAC CAFs in vitro resulting in decreased cancer cell invasion. a. Schematic of organotypic matrix remodeling assay whereby CAFs are embedded into a 3D collagen matrix and growth media supplemented with or without PXS-5505 to inhibit lysyl oxidase family activity b. Chemical structures of lysyl oxidase family catalyzed hydroxyallysine or allysine residues and the subsequent divalent and trivalent bonds that are formed that can be quantified by mass spectrometry. c. Representative images of 3D organotypic matrix contraction by human pancreatic cancer CAFs at days 2, 6 and 12 in the absence (gray) and presence (pink) of PXS-5505 (30 µM). Scale bars = 5 mm. […] Data presented as mean values +/− SD. d. […] Data presented as mean values +/− SD. Relative fold expression of LOXL family members compared to LOX were determined by 2^–∆∆Ct approach. f. Schematic of cancer cell invasion in a 3D organotypic matrix assay whereby cancer cells are seeded to the surface of a remodeled collagen plug and placed at an air–liquid interface and allowed to invade into the remodeled matrix. […] Scale bars = 100 μm. g. […] Representative images of 3D organotypic matrix contraction assay at days 2, 6 and 12 of control (gray) and presence of PXS-5120 (blue) and PXS-5505 (pink). Scale bars = 5 mm. Comparison of measured area of matrices between control, PXS-5120 and PXS-5505 treatment groups (n = 3) over time. i. […] Representative images of invasion of KPC cancer cells into a contracted organotypic matrix as determined by H&E staining. […] Source data

With `Cl.Cl.NC/C=C(\F)CS(=O)(=O)c1cccc2cccnc12.O` [PXS-5505, (Z)-3-fluoro-4-(quinolin-8-ylsulfonyl)but-2-en-1-amine dihydrochloride monohydrate] the IC50 (Recombinant LOXL-1) was 1.59 µM, the “LOXL1 activity, IC50 determination curve” value (Recombinant LOXL-1; log(Concentration) -4.52288, replicates, 30 µM) was -0.3767 and 0.3431 and 4.322 and the “LOXL1 activity, IC50 determination curve” value (Recombinant LOXL-1; log(Concentration) -5, replicates, 10 µM) was 5.837. The “LOXL1 activity, IC50 determination curve” value (Recombinant LOXL-1; log(Concentration) -5.47712, replicates, 3.333 µM) was 31.2503 and 31.9336, the “LOXL1 activity, IC50 determination curve” value (Recombinant LOXL-1; log(Concentration) -5.95424, replicates, 1.111 µM) was 60.6166 and 67.4565 and the “LOXL1 activity, IC50 determination curve” value (Recombinant LOXL-1; log(Concentration) -6.43136, replicates, 0.3704 µM) was 85.3221 and 90.5851. For the same compound, the “LOXL1 activity, IC50 determination curve” value (Recombinant LOXL-1; log(Concentration) -6.90849, replicates, 0.1235 µM) was 93.09 and 98.6783, the “LOXL1 activity, IC50 determination curve” value (Recombinant LOXL-1; log(Concentration) -7.38561, replicates, 0.04115 µM) was 99.6453 and 102.919 and the “LOXL1 activity, IC50 determination curve” value (Recombinant LOXL-1; log(Concentration) -7.86273, replicates, 0.01372 µM) was 100.176 and 100.944. The “LOXL1 activity, IC50 determination curve” value (Recombinant LOXL-1; log(Concentration) -8.33985, replicates, 0.004572 µM) was 101.83 and 104.276, the “LOXL1 activity, IC50 determination curve” value (Recombinant LOXL-1; log(Concentration) -8.81697, replicates, 0.001524 µM) was 107.666 and 104.748 and the “LOXL1 activity, IC50 determination curve” value (Recombinant LOXL-1; log(Concentration) -9.29409, replicates, 0.000508 µM) was 100.744 and 106.953. It also gave an activity at 10 µM (Recombinant LOXL-1; read-out: LOXL1 activity, IC50 determination curve, log(Concentration) -5, replicates) of 4.51%, an activity at 3.333 µM (Recombinant LOXL-1; read-out: LOXL1 activity, IC50 determination curve, log(Concentration) -5.47712, replicates) of 20.9% and an activity at 1.111 µM (Recombinant LOXL-1; read-out: LOXL1 activity, IC50 determination curve, log(Concentration) -5.95424, replicates) of 63.8%. It also gave an activity at 0.3704 µM (Recombinant LOXL-1; read-out: LOXL1 activity, IC50 determination curve, log(Concentration) -6.43136, replicates) of 85%, an activity at 0.1235 µM (Recombinant LOXL-1; read-out: LOXL1 activity, IC50 determination curve, log(Concentration) -6.90849, replicates) of 94.6% and an activity at 0.04115 µM (Recombinant LOXL-1; read-out: LOXL1 activity, IC50 determination curve, log(Concentration) -7.38561, replicates) of 99.8%. The activity at 0.01372 µM (Recombinant LOXL-1; read-out: LOXL1 activity, IC50 determination curve, log(Concentration) -7.86273, replicates) was 100%, the activity at 0.004572 µM (Recombinant LOXL-1; read-out: LOXL1 activity, IC50 determination curve, log(Concentration) -8.33985, replicates) was 101% and the activity at 0.001524 µM (Recombinant LOXL-1; read-out: LOXL1 activity, IC50 determination curve, log(Concentration) -8.81697, replicates) was 101%. For the same compound, the activity at 0.000508 µM (Recombinant LOXL-1; read-out: LOXL1 activity, IC50 determination curve, log(Concentration) -9.29409, replicates) was 102%, the remaining at 1 h (Microsomal stability) was 97% and the matrix contraction ([1]; human pancreatic cancer CAFs, PXS-5505 30 µM) was “no effect on CAF ability to contract matrices”. The area of matrices ([1]; time 0) was 3.834, the area of matrices ([1]; time 6) was 3 and 2.954 and 2.863 and 2.88 and 3.193 (2×) and 3.06 and 3.1 and 3.113 and the area of matrices ([1]; time 10) was 2.446 and 2.524 and 2.482 and 2.6253 and 2.773 and 2.7357 and 2.554 (2×) and 2.298. The area of matrices ([1]; time 12) was 2.093 and 2.049 and 2.109 and 2.548 and 2.951 and 2.912 and 2.791 (2×) and 2.892.
